Measured values reported in ChEMBL document CHEMBL3991601, “The target landscape of clinical kinase drugs” (Science, 2017).
Calls of active or inactive are those of the source.

What was measured:
[1] = target: Platelet-derived growth factor receptor beta (Homo sapiens, UniProt P09619)
Activin receptor type-2B = Activin receptor type-2B (Homo sapiens, UniProt Q13705)
[2] = target: Protein-tyrosine kinase 6 (Homo sapiens, UniProt Q13882)
[3] = target: Bone morphogenetic protein receptor type-1B (Homo sapiens, UniProt O00238)
[4] = target: ATP-dependent RNA helicase DDX3X (Homo sapiens, UniProt O00571)
[5] = target: T1, Tyrosine--tRNA ligase, cytoplasmic (Homo sapiens, UniProt P54577)
T1 sequence (P54577 whole entry): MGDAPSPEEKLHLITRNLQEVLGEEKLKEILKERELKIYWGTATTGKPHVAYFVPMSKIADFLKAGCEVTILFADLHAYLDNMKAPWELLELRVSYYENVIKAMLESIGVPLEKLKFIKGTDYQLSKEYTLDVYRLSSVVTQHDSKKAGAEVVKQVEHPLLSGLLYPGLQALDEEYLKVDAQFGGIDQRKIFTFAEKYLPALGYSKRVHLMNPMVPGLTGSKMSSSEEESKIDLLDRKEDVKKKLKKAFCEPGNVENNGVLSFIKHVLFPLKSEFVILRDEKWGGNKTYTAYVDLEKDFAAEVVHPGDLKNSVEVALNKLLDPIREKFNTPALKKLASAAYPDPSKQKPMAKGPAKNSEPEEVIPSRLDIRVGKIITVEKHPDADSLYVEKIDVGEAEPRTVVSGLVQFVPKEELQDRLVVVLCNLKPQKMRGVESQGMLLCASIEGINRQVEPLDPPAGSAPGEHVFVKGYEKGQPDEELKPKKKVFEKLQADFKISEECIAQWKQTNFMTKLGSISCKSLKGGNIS

[6] = target: T2, Bifunctional phosphoribosylaminoimidazole carboxylase/phosphoribosylaminoimidazole succinocarboxamide synthetase (Homo sapiens, UniProt P22234)
T2 sequence (P22234 whole entry): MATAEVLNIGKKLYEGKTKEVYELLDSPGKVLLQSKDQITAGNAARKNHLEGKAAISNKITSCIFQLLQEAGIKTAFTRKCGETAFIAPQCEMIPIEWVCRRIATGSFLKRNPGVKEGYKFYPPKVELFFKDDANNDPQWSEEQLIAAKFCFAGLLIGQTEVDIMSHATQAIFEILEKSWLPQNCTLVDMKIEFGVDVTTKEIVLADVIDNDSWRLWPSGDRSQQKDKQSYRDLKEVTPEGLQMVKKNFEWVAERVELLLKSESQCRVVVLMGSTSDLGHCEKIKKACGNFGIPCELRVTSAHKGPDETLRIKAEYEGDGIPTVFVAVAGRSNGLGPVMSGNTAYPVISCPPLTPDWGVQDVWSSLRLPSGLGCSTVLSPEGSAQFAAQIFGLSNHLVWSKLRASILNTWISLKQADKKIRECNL

[7] = target: T3, Serine/threonine-protein kinase NLK (Homo sapiens, UniProt Q9UBE8)
T3 sequence (Q9UBE8 whole entry): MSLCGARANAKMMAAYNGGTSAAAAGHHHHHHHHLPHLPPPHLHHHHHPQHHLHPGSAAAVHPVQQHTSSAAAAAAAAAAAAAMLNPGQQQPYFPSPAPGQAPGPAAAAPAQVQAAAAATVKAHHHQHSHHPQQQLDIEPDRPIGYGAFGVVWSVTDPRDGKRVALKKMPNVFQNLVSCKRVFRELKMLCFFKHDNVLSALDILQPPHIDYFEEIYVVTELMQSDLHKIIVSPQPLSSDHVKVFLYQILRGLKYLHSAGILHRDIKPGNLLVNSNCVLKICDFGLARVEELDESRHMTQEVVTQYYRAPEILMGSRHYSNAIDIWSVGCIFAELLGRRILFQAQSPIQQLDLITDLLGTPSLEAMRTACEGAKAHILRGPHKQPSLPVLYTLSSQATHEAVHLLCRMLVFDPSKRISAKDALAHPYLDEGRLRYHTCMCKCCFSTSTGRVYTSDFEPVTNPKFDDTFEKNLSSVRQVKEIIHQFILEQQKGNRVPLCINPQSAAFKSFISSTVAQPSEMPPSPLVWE

[8] = target: cAMP-dependent protein kinase type II-alpha regulatory subunit (Homo sapiens, UniProt P13861)
[9] = target: Ribosomal protein S6 kinase alpha-3 (Homo sapiens, UniProt P51812)
Scaffold protein ILK = target: T4, Scaffold protein ILK (Homo sapiens, UniProt Q13418)
T4 sequence (Q13418 whole entry): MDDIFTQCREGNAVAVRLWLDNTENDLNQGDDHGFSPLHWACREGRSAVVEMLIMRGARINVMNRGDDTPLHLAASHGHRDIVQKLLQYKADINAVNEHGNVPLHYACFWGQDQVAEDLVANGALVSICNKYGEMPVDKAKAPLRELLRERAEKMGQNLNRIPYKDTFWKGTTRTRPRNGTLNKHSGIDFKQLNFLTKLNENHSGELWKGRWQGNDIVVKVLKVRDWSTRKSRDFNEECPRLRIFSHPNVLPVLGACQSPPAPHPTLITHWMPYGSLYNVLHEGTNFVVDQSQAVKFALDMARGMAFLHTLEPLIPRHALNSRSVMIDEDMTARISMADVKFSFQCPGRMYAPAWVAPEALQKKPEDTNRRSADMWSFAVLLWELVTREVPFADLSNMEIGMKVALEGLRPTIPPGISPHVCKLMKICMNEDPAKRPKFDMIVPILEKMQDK
Note: in the data inactive means no Kd found up to 30 µM.

ATP-dependent RNA helicase DDX3X, sequence (O00571 whole entry): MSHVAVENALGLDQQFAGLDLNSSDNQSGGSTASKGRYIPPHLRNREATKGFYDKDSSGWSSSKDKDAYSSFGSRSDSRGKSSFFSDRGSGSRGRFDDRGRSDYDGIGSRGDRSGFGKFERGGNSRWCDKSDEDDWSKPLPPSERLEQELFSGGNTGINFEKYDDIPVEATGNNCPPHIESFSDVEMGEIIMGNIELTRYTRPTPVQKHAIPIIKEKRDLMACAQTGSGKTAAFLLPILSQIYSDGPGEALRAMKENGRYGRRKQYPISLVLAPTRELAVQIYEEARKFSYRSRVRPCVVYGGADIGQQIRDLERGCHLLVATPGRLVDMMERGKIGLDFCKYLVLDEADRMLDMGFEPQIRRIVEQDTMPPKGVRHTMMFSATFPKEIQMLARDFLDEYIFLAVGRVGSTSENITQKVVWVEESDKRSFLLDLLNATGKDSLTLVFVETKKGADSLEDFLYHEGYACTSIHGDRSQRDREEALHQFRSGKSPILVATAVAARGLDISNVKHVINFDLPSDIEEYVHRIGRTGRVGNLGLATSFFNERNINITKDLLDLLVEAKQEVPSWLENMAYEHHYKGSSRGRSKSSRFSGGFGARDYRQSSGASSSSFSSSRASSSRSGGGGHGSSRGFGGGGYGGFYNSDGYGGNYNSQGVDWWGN
Activin receptor type-2B, sequence (Q13705 whole entry): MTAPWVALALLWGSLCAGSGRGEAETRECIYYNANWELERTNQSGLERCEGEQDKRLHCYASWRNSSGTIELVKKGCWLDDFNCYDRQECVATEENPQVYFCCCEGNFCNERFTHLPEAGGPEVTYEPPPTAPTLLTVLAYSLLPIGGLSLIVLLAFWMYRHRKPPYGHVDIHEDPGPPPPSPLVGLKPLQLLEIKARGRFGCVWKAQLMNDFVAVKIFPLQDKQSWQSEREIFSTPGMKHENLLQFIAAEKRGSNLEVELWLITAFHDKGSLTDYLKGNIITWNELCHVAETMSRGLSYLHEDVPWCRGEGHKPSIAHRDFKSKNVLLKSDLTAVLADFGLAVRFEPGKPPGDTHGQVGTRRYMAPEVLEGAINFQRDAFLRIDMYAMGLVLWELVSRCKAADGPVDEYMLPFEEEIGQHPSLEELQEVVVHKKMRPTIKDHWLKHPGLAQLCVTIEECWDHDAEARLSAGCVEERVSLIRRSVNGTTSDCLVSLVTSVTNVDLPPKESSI
Bone morphogenetic protein receptor type-1B, sequence (O00238 whole entry): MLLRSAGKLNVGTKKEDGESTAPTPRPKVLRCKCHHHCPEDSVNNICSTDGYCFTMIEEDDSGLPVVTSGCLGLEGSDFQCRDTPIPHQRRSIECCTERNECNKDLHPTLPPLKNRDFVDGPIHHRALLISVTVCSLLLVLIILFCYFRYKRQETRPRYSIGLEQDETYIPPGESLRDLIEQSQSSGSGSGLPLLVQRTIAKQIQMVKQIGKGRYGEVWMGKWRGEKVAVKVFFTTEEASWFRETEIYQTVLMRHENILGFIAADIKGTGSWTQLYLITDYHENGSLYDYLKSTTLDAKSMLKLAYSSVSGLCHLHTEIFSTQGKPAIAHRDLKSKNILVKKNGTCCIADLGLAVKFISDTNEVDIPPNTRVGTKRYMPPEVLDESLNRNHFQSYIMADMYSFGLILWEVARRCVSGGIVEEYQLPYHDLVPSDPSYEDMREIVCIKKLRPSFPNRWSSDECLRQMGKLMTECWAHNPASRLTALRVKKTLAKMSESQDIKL
cAMP-dependent protein kinase type II-alpha regulatory subunit, sequence (P13861 whole entry): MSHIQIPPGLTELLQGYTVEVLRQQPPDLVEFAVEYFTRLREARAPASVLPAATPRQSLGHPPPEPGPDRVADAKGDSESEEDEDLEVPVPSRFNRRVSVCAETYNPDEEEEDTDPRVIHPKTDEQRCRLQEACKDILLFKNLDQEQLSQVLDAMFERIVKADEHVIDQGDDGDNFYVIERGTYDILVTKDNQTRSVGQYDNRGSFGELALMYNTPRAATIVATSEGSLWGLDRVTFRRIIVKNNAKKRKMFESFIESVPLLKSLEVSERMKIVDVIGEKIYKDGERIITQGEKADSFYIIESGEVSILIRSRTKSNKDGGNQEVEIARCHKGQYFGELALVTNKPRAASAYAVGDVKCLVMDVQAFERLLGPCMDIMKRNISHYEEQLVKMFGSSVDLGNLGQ
Protein-tyrosine kinase 6, sequence (Q13882 whole entry): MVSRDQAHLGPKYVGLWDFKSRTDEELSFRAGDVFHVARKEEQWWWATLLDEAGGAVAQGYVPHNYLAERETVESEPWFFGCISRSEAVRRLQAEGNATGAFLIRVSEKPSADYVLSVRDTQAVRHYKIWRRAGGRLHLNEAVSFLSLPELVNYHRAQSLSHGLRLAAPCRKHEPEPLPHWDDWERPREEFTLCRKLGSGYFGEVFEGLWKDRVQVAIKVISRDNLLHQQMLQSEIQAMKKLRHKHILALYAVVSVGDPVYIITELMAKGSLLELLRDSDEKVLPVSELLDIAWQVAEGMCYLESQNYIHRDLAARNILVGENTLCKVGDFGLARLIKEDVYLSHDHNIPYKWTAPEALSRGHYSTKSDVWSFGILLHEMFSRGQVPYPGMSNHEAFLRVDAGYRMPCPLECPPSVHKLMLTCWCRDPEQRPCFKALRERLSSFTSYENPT
Platelet-derived growth factor receptor beta, sequence (P09619 whole entry): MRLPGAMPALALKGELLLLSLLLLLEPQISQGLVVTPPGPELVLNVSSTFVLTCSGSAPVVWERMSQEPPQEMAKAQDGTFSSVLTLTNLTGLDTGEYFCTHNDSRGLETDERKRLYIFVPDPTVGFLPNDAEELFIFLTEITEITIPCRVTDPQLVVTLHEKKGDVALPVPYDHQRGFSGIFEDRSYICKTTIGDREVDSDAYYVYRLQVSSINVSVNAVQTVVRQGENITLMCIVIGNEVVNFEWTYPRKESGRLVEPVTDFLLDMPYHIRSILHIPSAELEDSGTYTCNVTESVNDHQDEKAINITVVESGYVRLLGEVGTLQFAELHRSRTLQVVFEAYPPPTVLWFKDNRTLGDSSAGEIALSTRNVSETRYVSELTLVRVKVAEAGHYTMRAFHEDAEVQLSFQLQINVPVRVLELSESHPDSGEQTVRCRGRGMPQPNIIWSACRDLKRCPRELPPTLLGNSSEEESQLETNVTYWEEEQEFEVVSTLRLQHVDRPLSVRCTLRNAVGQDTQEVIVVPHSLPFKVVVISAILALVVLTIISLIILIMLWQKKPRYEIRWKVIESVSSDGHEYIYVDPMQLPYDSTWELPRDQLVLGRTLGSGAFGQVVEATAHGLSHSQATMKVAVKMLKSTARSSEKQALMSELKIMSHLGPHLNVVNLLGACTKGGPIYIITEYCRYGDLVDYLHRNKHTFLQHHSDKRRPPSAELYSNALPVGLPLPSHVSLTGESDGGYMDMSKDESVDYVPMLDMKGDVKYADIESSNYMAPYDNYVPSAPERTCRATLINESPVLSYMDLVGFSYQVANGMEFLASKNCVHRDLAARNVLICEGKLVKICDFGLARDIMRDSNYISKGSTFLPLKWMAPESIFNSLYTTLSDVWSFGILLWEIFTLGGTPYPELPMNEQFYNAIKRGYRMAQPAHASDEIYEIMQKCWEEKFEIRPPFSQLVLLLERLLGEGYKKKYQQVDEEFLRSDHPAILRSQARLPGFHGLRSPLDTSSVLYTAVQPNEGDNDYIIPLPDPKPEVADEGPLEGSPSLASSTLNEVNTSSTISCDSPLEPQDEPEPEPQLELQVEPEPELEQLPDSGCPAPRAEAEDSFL
Ribosomal protein S6 kinase alpha-3, sequence (P51812 whole entry): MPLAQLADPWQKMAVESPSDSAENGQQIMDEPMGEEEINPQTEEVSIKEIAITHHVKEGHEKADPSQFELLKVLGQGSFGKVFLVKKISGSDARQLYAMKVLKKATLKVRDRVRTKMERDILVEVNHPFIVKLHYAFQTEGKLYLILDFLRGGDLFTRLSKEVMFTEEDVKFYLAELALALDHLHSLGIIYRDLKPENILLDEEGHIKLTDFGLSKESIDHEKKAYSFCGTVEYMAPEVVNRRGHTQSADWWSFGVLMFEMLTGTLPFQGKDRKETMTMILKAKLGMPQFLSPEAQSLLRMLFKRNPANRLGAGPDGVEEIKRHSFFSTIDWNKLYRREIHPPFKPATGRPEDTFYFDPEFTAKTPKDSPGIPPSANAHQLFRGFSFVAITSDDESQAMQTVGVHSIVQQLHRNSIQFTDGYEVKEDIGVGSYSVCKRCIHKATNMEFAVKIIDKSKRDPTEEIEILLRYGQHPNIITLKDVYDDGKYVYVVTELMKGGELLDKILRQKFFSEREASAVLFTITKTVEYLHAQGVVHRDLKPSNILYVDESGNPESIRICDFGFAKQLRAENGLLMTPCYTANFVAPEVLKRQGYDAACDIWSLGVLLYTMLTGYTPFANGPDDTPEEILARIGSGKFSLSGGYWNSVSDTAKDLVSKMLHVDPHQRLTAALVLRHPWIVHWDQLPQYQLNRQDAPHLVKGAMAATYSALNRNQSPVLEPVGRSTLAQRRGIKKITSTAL

| Structure (SMILES) | Kd [1] | Kd (Activin receptor type-2B) | Kd [2] | Kd [3] | Kd [4] | Kd [5] | Kd [6] | Kd [7] | Kd [8] | Kd [9] | Kd (Scaffold protein ILK) |
| --- | --- | --- | --- | --- | --- | --- | --- | --- | --- | --- | --- |
| O=c1[nH]c([C@@H]2CCCN2)nc2c1oc1ccc(Cl)cc12 | > 30 µM (inactive) | > 30 µM (inactive) | > 30 µM (inactive) | > 30 µM (inactive) | > 30 µM (inactive) | > 30 µM (inactive) | > 30 µM (inactive) | > 30 µM (inactive) | > 30 µM (inactive) | > 30 µM (inactive) | > 30 µM (inactive) |
| Cn1cc(-c2[nH]c3cc(NC(=O)[C@H](N)C4CCCCC4)cc4c3c2C=NNC4=O)cn1 | 0.1 µM (active) | > 30 µM (inactive) | > 30 µM (inactive) | 2.01 µM (active) | > 30 µM (inactive) | > 30 µM (inactive) | > 30 µM (inactive) | > 30 µM (inactive) | > 30 µM (inactive) | > 30 µM (inactive) | > 30 µM (inactive) |
| CCN1CCN(Cc2ccc(Nc3ncc(F)c(-c4cc(F)c5nc(C)n(C(C)C)c5c4)n3)nc2)CC1 [ABEMACICLIB] | > 30 µM (inactive) | > 30 µM (inactive) | > 30 µM (inactive) | > 30 µM (inactive) | > 30 µM (inactive) | > 30 µM (inactive) | > 30 µM (inactive) | > 30 µM (inactive) | > 30 µM (inactive) | > 30 µM (inactive) | – |
| Cc1c(NC(=O)OC[C@@H]2COCCN2)cn2ncnc(Nc3ccc4c(cnn4Cc4cccc(F)c4)c3)c12 [AC-480] | > 30 µM (inactive) | > 30 µM (inactive) | > 30 µM (inactive) | > 30 µM (inactive) | > 30 µM (inactive) | > 30 µM (inactive) | > 30 µM (inactive) | > 30 µM (inactive) | > 30 µM (inactive) | > 30 µM (inactive) | > 30 µM (inactive) |
| CCc1cc2c(cc1N1CCC(N3CCOCC3)CC1)C(C)(C)c1[nH]c3cc(C#N)ccc3c1C2=O [ALECTINIB] | > 30 µM (inactive) | > 30 µM (inactive) | > 30 µM (inactive) | > 30 µM (inactive) | > 30 µM (inactive) | > 30 µM (inactive) | > 30 µM (inactive) | > 30 µM (inactive) | > 30 µM (inactive) | > 30 µM (inactive) | > 30 µM (inactive) |
| COc1ccc2c(OCc3nnc4ccc(-c5ccccc5)nn34)ccnc2c1 [AMG-208] | > 30 µM (inactive) | > 30 µM (inactive) | > 30 µM (inactive) | > 30 µM (inactive) | > 30 µM (inactive) | > 30 µM (inactive) | > 30 µM (inactive) | > 30 µM (inactive) | > 30 µM (inactive) | > 30 µM (inactive) | > 30 µM (inactive) |
| S=C(NCc1ccc2c(c1)OCO2)N1CCN(c2ncnc3c2oc2ccccc23)CC1 [AMUVATINIB] | > 30 µM (inactive) | > 30 µM (inactive) | > 30 µM (inactive) | > 30 µM (inactive) | > 30 µM (inactive) | > 30 µM (inactive) | > 30 µM (inactive) | > 30 µM (inactive) | > 30 µM (inactive) | > 30 µM (inactive) | > 30 µM (inactive) |
| NC[C@@](O)(c1ccc(Cl)cc1)c1ccc(-c2cn[nH]c2)cc1 [AT-13148] | > 30 µM (inactive) | > 30 µM (inactive) | > 30 µM (inactive) | > 30 µM (inactive) | > 30 µM (inactive) | > 30 µM (inactive) | > 30 µM (inactive) | > 30 µM (inactive) | > 30 µM (inactive) | > 30 µM (inactive) | > 30 µM (inactive) |
| Cc1cc(Nc2nc(N[C@@H](C)c3ncc(F)cn3)ncc2Cl)n[nH]1 [AZD-1480] | > 30 µM (inactive) | > 30 µM (inactive) | > 30 µM (inactive) | > 30 µM (inactive) | > 30 µM (inactive) | > 30 µM (inactive) | > 30 µM (inactive) | > 30 µM (inactive) | > 30 µM (inactive) | > 30 µM (inactive) | > 30 µM (inactive) |
| COc1ccc(-c2ccc3ncc4c(c3c2)n(-c2ccc(N3CCNCC3)c(C(F)(F)F)c2)c(=O)n4C)cn1 [BGT-226 FREE BASE] | > 30 µM (inactive) | > 30 µM (inactive) | > 30 µM (inactive) | > 30 µM (inactive) | > 30 µM (inactive) | > 30 µM (inactive) | > 30 µM (inactive) | > 30 µM (inactive) | > 30 µM (inactive) | > 30 µM (inactive) | > 30 µM (inactive) |
| CCOc1ccn(-c2ccc(F)cc2)c(=O)c1C(=O)Nc1ccc(Oc2ccnc(N)c2Cl)c(F)c1 [BMS-777607] | > 30 µM (inactive) | > 30 µM (inactive) | > 30 µM (inactive) | > 30 µM (inactive) | > 30 µM (inactive) | > 30 µM (inactive) | > 30 µM (inactive) | > 30 µM (inactive) | > 30 µM (inactive) | > 30 µM (inactive) | – |
| CC[C@@](C)(Nc1ccnc(-c2c[nH]c3ncccc23)n1)C(=O)NCC(F)(F)F [DECERNOTINIB] | > 30 µM (inactive) | > 30 µM (inactive) | > 30 µM (inactive) | > 30 µM (inactive) | > 30 µM (inactive) | > 30 µM (inactive) | > 30 µM (inactive) | > 30 µM (inactive) | – | > 30 µM (inactive) | > 30 µM (inactive) |
| COc1cc(F)c(F)c(Nc2ccc(I)cc2F)c1NS(=O)(=O)C1(C[C@H](O)CO)CC1 [REFAMETINIB] | > 30 µM (inactive) | > 30 µM (inactive) | > 30 µM (inactive) | > 30 µM (inactive) | > 30 µM (inactive) | > 30 µM (inactive) | > 30 µM (inactive) | > 30 µM (inactive) | > 30 µM (inactive) | > 30 µM (inactive) | – |
| C=CCN(/C=C1/C(=O)O[C@H](COC)[C@@]2(C)C1=C(O)C(=O)C1=C2[C@H](OC(C)=O)C[C@]2(C)C(=O)CC[C@@H]12)CC=C [SONOLISIB] | > 30 µM (inactive) | > 30 µM (inactive) | > 30 µM (inactive) | > 30 µM (inactive) | > 30 µM (inactive) | – | > 30 µM (inactive) | > 30 µM (inactive) | > 30 µM (inactive) | > 30 µM (inactive) | > 30 µM (inactive) |
| O[C@H]1CC[C@H](Nc2ncc3nc(Nc4c(F)cc(F)cc4F)n([C@H]4CCOC4)c3n2)CC1 [TANZISERTIB] | > 30 µM (inactive) | > 30 µM (inactive) | > 30 µM (inactive) | > 30 µM (inactive) | > 30 µM (inactive) | > 30 µM (inactive) | > 30 µM (inactive) | > 30 µM (inactive) | > 30 µM (inactive) | > 30 µM (inactive) | – |
